From PubChem BioAssay (NCI)
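Method: 48-hour compound exposure of cells in 96-well plates, five concentrations, linear interpolation of endpoints. TGI denotes the concentration required for complete inhibition of growth.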

Key:
Test in all cases: NCI-60 cell line screen, 48 h
786-0 renal = system: 786-0 renal
HOP-92 NSCLC = system: HOP-92 NSCLC
TK-10 renal = system: TK-10 renal
U251 CNS = system: U251 CNS
SN12C renal = system: SN12C renal
SR leukemia = system: SR leukemia
A498 renal = system: A498 renal
NCI/ADR-RES ovarian = system: NCI/ADR-RES ovarian
OVCAR-4 ovarian = system: OVCAR-4 ovarian
NCI-H522 lung = system: NCI-H522 lung
SK-MEL-5 melanoma = system: SK-MEL-5 melanoma
LOX IMVI melanoma = system: LOX IMVI melanoma
A549 NSCLC = system: A549 NSCLC
HT29 colon = system: HT29 colon
RXF 393 renal = system: RXF 393 renal
UACC-257 melanoma = system: UACC-257 melanoma
HOP-62 NSCLC = system: HOP-62 NSCLC
OVCAR-3 ovarian = system: OVCAR-3 ovarian
ACHN renal = system: ACHN renal
M14 melanoma = system: M14 melanoma
MOLT-4 leukemia = system: MOLT-4 leukemia
HCT-15 colon = system: HCT-15 colon
SNB-19 CNS = system: SNB-19 CNS
NCI-H460 lung = system: NCI-H460 lung
SF-295 CNS = system: SF-295 CNS
T-47D breast = system: T-47D breast
BT-549 breast = system: BT-549 breast
MDA-MB-231 breast = system: MDA-MB-231 breast
MDA-MB-435 = system: MDA-MB-435
OVCAR-8 ovarian = system: OVCAR-8 ovarian
NCI-H23 lung = system: NCI-H23 lung
IGROV1 ovarian = system: IGROV1 ovarian
DU-145 prostate = system: DU-145 prostate
SF-268 CNS = system: SF-268 CNS
NCI-H226 lung = system: NCI-H226 lung
CAKI-1 renal = system: CAKI-1 renal
PC-3 prostate = system: PC-3 prostate
EKVX NSCLC = system: EKVX NSCLC
MALME-3M melanoma = system: MALME-3M melanoma
SW-620 colon = system: SW-620 colon
UACC-62 melanoma = system: UACC-62 melanoma
MDA-N = system: MDA-N
SNB-75 CNS = system: SNB-75 CNS
UO-31 renal = system: UO-31 renal
K-562 leukemia = system: K-562 leukemia
SK-MEL-2 melanoma = system: SK-MEL-2 melanoma
SK-MEL-28 melanoma = system: SK-MEL-28 melanoma
HCT-116 colon = system: HCT-116 colon
HL-60(TB) leukemia = system: HL-60(TB) leukemia
OVCAR-5 ovarian = system: OVCAR-5 ovarian
MCF7 breast = system: MCF7 breast
SK-OV-3 ovarian = system: SK-OV-3 ovarian
RPMI-8226 leukemia = system: RPMI-8226 leukemia
COLO 205 colon = system: COLO 205 colon
KM12 colon = system: KM12 colon
HCC-2998 colon = system: HCC-2998 colon
CCRF-CEM leukemia = system: CCRF-CEM leukemia
SF-539 CNS = system: SF-539 CNS

## COC(=O)c1cc(=O)[nH]c(=O)[nH]1
786-0 renal
  TGI: > 100 µM
HOP-92 NSCLC
  TGI: > 100 µM
TK-10 renal
  TGI: > 100 µM
U251 CNS
  TGI: > 100 µM
SN12C renal
  TGI: > 100 µM
SR leukemia
  TGI: > 100 µM
A498 renal
  TGI: > 100 µM
NCI/ADR-RES ovarian
  TGI: > 100 µM
OVCAR-4 ovarian
  TGI: > 100 µM
NCI-H522 lung
  TGI: > 100 µM
SK-MEL-5 melanoma
  TGI: > 100 µM
LOX IMVI melanoma
  TGI: > 100 µM
A549 NSCLC
  TGI: > 100 µM
HT29 colon
  TGI: > 100 µM
RXF 393 renal
  TGI: > 100 µM
UACC-257 melanoma
  TGI: > 100 µM
HOP-62 NSCLC
  TGI: > 100 µM
OVCAR-3 ovarian
  TGI: > 100 µM
ACHN renal
  TGI: > 100 µM
M14 melanoma
  TGI: > 100 µM
MOLT-4 leukemia
  TGI: > 100 µM
HCT-15 colon
  TGI: > 100 µM
SNB-19 CNS
  TGI: > 100 µM
NCI-H460 lung
  TGI: > 100 µM
SF-295 CNS
  TGI: > 100 µM
T-47D breast
  TGI: > 100 µM
BT-549 breast
  TGI: > 100 µM
MDA-MB-231 breast
  TGI: > 100 µM
MDA-MB-435
  TGI: > 100 µM
OVCAR-8 ovarian
  TGI: > 100 µM
NCI-H23 lung
  TGI: > 100 µM
IGROV1 ovarian
  TGI: > 100 µM
DU-145 prostate
  TGI: > 100 µM
SF-268 CNS
  TGI: > 100 µM
NCI-H226 lung
  TGI: > 100 µM
CAKI-1 renal
  TGI: > 100 µM
PC-3 prostate
  TGI: > 100 µM
EKVX NSCLC
  TGI: > 100 µM
MALME-3M melanoma
  TGI: > 100 µM
SW-620 colon
  TGI: > 100 µM
UACC-62 melanoma
  TGI: > 100 µM
MDA-N
  TGI: > 100 µM
SNB-75 CNS
  TGI: > 100 µM
UO-31 renal
  TGI: > 100 µM
K-562 leukemia
  TGI: > 100 µM
SK-MEL-2 melanoma
  TGI: > 100 µM
SK-MEL-28 melanoma
  TGI: > 100 µM
HCT-116 colon
  TGI: > 100 µM
HL-60(TB) leukemia
  TGI: > 100 µM
OVCAR-5 ovarian
  TGI: > 100 µM

## COc1ccc(N2C(=O)CC(=O)N(C(=O)COc3ccc(OCC(=O)N4C(=O)CC(=O)N(c5ccc(OC)cc5)C4=S)cc3)C2=S)cc1
786-0 renal
  TGI: > 100 µM
HOP-92 NSCLC
  TGI: > 100 µM
TK-10 renal
  TGI: > 100 µM
U251 CNS
  TGI: > 100 µM
SN12C renal
  TGI: > 100 µM
MCF7 breast
  TGI: > 100 µM
SK-OV-3 ovarian
  TGI: > 100 µM
A498 renal
  TGI: > 100 µM
RPMI-8226 leukemia
  TGI: > 100 µM
NCI/ADR-RES ovarian
  TGI: > 100 µM
OVCAR-4 ovarian
  TGI: > 100 µM
NCI-H522 lung
  TGI: > 100 µM
SK-MEL-5 melanoma
  TGI: > 100 µM
A549 NSCLC
  TGI: > 100 µM
HT29 colon
  TGI: > 100 µM
RXF 393 renal
  TGI: 77.3 µM
UACC-257 melanoma
  TGI: > 100 µM
COLO 205 colon
  TGI: 39.8 µM
ACHN renal
  TGI: > 100 µM
M14 melanoma
  TGI: > 100 µM
MOLT-4 leukemia
  TGI: > 100 µM
HCT-15 colon
  TGI: > 100 µM
SNB-19 CNS
  TGI: > 100 µM
NCI-H460 lung
  TGI: > 100 µM
SF-295 CNS
  TGI: > 100 µM
BT-549 breast
  TGI: > 100 µM
MDA-MB-231 breast
  TGI: > 100 µM
MDA-MB-435
  TGI: > 100 µM
NCI-H23 lung
  TGI: > 100 µM
IGROV1 ovarian
  TGI: > 100 µM
DU-145 prostate
  TGI: > 100 µM
SF-268 CNS
  TGI: > 100 µM
NCI-H226 lung
  TGI: > 100 µM
CAKI-1 renal
  TGI: 30.3 µM
KM12 colon
  TGI: 32.6 µM
PC-3 prostate
  TGI: > 100 µM
EKVX NSCLC
  TGI: > 100 µM
MALME-3M melanoma
  TGI: > 100 µM
SW-620 colon
  TGI: > 100 µM
UACC-62 melanoma
  TGI: > 100 µM
HCC-2998 colon
  TGI: > 100 µM
MDA-N
  TGI: > 100 µM
SNB-75 CNS
  TGI: > 100 µM
UO-31 renal
  TGI: > 100 µM
K-562 leukemia
  TGI: > 100 µM
SK-MEL-2 melanoma
  TGI: > 100 µM
SK-MEL-28 melanoma
  TGI: > 100 µM
HCT-116 colon
  TGI: 39.5 µM
OVCAR-5 ovarian
  TGI: > 100 µM

## O=C1C(Cl)=C(OCCCl)C(=O)c2c(O)ccc(O)c21
786-0 renal
  TGI: 17.3 µM
HOP-92 NSCLC
  TGI: 3.12 µM
TK-10 renal
  TGI: 7.76 µM
U251 CNS
  TGI: 27.9 µM
SN12C renal
  TGI: 28 µM
MCF7 breast
  TGI: 5.19 µM
SK-OV-3 ovarian
  TGI: 32.1 µM
SR leukemia
  TGI: 0.397 µM
A498 renal
  TGI: 34.8 µM
RPMI-8226 leukemia
  TGI: 0.993 µM
NCI/ADR-RES ovarian
  TGI: 69.1 µM
OVCAR-4 ovarian
  TGI: 5.46 µM
SK-MEL-5 melanoma
  TGI: 6.91 µM
LOX IMVI melanoma
  TGI: 12.4 µM
A549 NSCLC
  TGI: 37.9 µM
CCRF-CEM leukemia
  TGI: 0.381 µM
HT29 colon
  TGI: 12.5 µM
RXF 393 renal
  TGI: 18.6 µM
UACC-257 melanoma
  TGI: 8.01 µM
HOP-62 NSCLC
  TGI: 30.4 µM
OVCAR-3 ovarian
  TGI: 10.9 µM
COLO 205 colon
  TGI: 3.26 µM
ACHN renal
  TGI: 10.4 µM
M14 melanoma
  TGI: 4.19 µM
MOLT-4 leukemia
  TGI: 0.619 µM
HCT-15 colon
  TGI: 7.01 µM
SNB-19 CNS
  TGI: 32.7 µM
NCI-H460 lung
  TGI: 40.7 µM
SF-295 CNS
  TGI: 33.3 µM
T-47D breast
  TGI: 4 µM
BT-549 breast
  TGI: 26.9 µM
MDA-MB-231 breast
  TGI: 10.6 µM
OVCAR-8 ovarian
  TGI: 47.6 µM
NCI-H23 lung
  TGI: 19.8 µM
IGROV1 ovarian
  TGI: 19.7 µM
DU-145 prostate
  TGI: 32.2 µM
SF-268 CNS
  TGI: 17.1 µM
NCI-H226 lung
  TGI: 30.7 µM
CAKI-1 renal
  TGI: 3.93 µM
KM12 colon
  TGI: 40.5 µM
PC-3 prostate
  TGI: 26 µM
EKVX NSCLC
  TGI: 34.2 µM
MALME-3M melanoma
  TGI: 7.53 µM
SW-620 colon
  TGI: 9.9 µM
UACC-62 melanoma
  TGI: 14 µM
SF-539 CNS
  TGI: 31.8 µM
HCC-2998 colon
  TGI: 35.4 µM
MDA-N
  TGI: 7.37 µM
SNB-75 CNS
  TGI: 26.3 µM
UO-31 renal
  TGI: 11 µM
K-562 leukemia
  TGI: 1.08 µM
SK-MEL-28 melanoma
  TGI: 12.5 µM
HCT-116 colon
  TGI: 2.97 µM
HL-60(TB) leukemia
  TGI: 0.197 µM
OVCAR-5 ovarian
  TGI: 31.6 µM

## O=C1CCCCC/C1=C\c1ccc([N+](=O)[O-])cc1
786-0 renal
  TGI: 54.6 µM
TK-10 renal
  TGI: 74.4 µM
U251 CNS
  TGI: > 100 µM
SN12C renal
  TGI: 59.6 µM
MCF7 breast
  TGI: > 100 µM
SK-OV-3 ovarian
  TGI: > 100 µM
SR leukemia
  TGI: 92.9 µM
A498 renal
  TGI: > 100 µM
RPMI-8226 leukemia
  TGI: 97 µM
NCI/ADR-RES ovarian
  TGI: > 100 µM
SK-MEL-5 melanoma
  TGI: 43.7 µM
A549 NSCLC
  TGI: > 100 µM
CCRF-CEM leukemia
  TGI: 70.5 µM
HT29 colon
  TGI: 77.7 µM
RXF 393 renal
  TGI: > 100 µM
UACC-257 melanoma
  TGI: 54.9 µM
HOP-62 NSCLC
  TGI: > 100 µM
OVCAR-3 ovarian
  TGI: 73.2 µM
COLO 205 colon
  TGI: 49.2 µM
ACHN renal
  TGI: 55 µM
M14 melanoma
  TGI: > 100 µM
MOLT-4 leukemia
  TGI: > 100 µM
SNB-19 CNS
  TGI: > 100 µM
NCI-H460 lung
  TGI: 39.4 µM
SF-295 CNS
  TGI: > 100 µM
T-47D breast
  TGI: > 100 µM
BT-549 breast
  TGI: 54.3 µM
MDA-MB-231 breast
  TGI: 37.9 µM
MDA-MB-435
  TGI: > 100 µM
OVCAR-8 ovarian
  TGI: > 100 µM
IGROV1 ovarian
  TGI: 34.5 µM
DU-145 prostate
  TGI: > 100 µM
SF-268 CNS
  TGI: 82 µM
CAKI-1 renal
  TGI: 59.9 µM
KM12 colon
  TGI: 37.6 µM
PC-3 prostate
  TGI: > 100 µM
EKVX NSCLC
  TGI: > 100 µM
MALME-3M melanoma
  TGI: > 100 µM
SW-620 colon
  TGI: > 100 µM
UACC-62 melanoma
  TGI: > 100 µM
SF-539 CNS
  TGI: 62.5 µM
HCC-2998 colon
  TGI: 33.1 µM
MDA-N
  TGI: > 100 µM
SNB-75 CNS
  TGI: > 100 µM
UO-31 renal
  TGI: 79.7 µM
K-562 leukemia
  TGI: > 100 µM
SK-MEL-2 melanoma
  TGI: > 100 µM
SK-MEL-28 melanoma
  TGI: > 100 µM
HCT-116 colon
  TGI: 57.6 µM
HL-60(TB) leukemia
  TGI: 94.4 µM
OVCAR-5 ovarian
  TGI: > 100 µM
